For assay [1], the target named is T1, ALK2 (Mus musculus, UniProt P37172).
T1 construct: The C2C12 cell line was selected for the measurement of ALK2 activity using BMP6 as the agonist; host or cells: C2C12
T1 sequence (P37172 21-509): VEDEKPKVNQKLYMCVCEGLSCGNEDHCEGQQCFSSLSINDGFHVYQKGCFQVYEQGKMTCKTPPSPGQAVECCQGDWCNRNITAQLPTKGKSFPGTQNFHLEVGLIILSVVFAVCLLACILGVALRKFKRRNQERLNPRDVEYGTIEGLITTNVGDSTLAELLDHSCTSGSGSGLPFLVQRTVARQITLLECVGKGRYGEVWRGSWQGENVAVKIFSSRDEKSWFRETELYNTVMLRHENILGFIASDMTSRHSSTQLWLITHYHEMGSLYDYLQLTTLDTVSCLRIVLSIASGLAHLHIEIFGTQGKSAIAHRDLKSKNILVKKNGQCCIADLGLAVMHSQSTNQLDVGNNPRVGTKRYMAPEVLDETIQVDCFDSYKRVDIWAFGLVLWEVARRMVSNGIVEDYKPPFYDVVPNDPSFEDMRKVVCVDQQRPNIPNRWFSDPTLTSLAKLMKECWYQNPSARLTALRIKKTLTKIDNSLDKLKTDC
Description: HTRF pSMAD1 cell-based ALK2 assay (C2C12 cells, BMP6 as agonist). To be noted: cell-based assay, BMP6; read-out: Cell IC50 BMP6. The method, then: 2. HTRF Cell-Based ALK1 and ALK2 Assays in 384-Well Plate Format We have developed a cell based ALK1 kinase assay and a cell-based ALK2 assay. The BAOEC cell line was employed for the measurement of ALK1 activity using BMP9 as the agonist. The C2C12 cell line was selected for the measurement of ALK2 activity using BMP6 as the agonist. The kinase specificity was defined by the specific cell line and agonist. The kinase activity was determined by the status of SMD 1/5/8 phosphorylation stimulated by the agonist.
HyClone Fetal Bovine Serum was obtained from GE healthcare life sciences (Logan, Utah). BMP6 and BMP9 were purchased from R&D System. […] The compound plates and the white solid MB assay plates were purchased from Greiner Bio-one (Monroe, N.C.).
HTRF optimization experiments were performed in 384 well plate format. […] Pre-starved cells were then plated in 384 well plate in the starvation medium (containing in 0.1% FBS). After 4 hours, compounds were added to the assay plate and incubated for 30 minutes. The assay plate was then added with BMP6 for C2C12 cells or BMP9 for BAOEC cells and incubated for 30 minutes.
HTRF assay was performed to measure the status of SMAD 1 phosphorylation after stimulated with the agonist (Table 3). This HTRF phospho SMAD1 cell assay was developed and optimized for the homogenous detection of phospho SMAD 1 levels in cells. […] The plate was incubated at room temperature for overnight.

For assay [2], the target named is ALK1 (Homo sapiens, UniProt P37023). Description: TR-FRET enzymatic ALK kinase assay, ALK1. A general note: In TR-FRET formats the signal depends on donor and acceptor labels being close together.
Chain of ALK1 (P37023 22-503): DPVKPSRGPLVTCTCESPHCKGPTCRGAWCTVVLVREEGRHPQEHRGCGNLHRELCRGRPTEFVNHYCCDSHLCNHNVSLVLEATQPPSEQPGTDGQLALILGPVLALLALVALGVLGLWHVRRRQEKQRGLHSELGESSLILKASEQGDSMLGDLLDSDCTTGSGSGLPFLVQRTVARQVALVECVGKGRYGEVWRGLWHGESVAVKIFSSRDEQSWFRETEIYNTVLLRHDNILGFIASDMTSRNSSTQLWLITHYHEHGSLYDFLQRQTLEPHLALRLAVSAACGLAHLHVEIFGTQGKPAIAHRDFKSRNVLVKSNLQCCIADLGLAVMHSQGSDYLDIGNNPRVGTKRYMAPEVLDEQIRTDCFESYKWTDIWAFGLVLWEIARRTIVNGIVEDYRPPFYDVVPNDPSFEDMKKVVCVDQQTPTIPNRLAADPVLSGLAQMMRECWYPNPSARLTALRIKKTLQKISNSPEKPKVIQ
Description: (§1) Briefly, the ALKs enzymatic assay was initiated by dispense 2.5 μl enzyme in 1× kinase reaction buffer. The assay plate was then added with compounds followed by incubation at room temperature for 10 minutes. Then 2.5 μl/well substrate was added.
Assay [3] concerns the target T2, ALK2 (Homo sapiens, UniProt Q04771).
T2 sequence (Q04771 21-509): T1 sequence (P37172 21-509) with V1M, Q10P, I121L, E162D, S310P
The assay can be described thus: TR-FRET enzymatic ALK kinase assay, ALK2.
Description: as §1

In assay [4] the target is ALK3 (Homo sapiens, UniProt P36894). Description: TR-FRET enzymatic ALK kinase assay, ALK3.
Chain of ALK3 (P36894 24-532): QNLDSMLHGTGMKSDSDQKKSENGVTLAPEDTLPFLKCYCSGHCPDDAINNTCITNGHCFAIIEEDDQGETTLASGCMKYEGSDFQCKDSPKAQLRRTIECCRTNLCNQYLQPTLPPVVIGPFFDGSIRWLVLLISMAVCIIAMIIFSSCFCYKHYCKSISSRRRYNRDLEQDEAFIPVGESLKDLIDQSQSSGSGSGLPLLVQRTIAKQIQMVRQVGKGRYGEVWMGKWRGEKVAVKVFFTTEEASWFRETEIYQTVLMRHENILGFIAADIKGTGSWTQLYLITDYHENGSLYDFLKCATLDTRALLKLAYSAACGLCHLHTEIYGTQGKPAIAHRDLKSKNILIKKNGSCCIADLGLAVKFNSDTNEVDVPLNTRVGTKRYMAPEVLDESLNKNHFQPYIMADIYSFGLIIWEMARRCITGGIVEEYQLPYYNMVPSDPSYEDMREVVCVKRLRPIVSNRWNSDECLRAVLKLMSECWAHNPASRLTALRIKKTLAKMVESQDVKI
Description: as §1
For assay [5], the target named is T3, ALK4 (Homo sapiens, UniProt P36896).
T3 sequence (P36896 24-505): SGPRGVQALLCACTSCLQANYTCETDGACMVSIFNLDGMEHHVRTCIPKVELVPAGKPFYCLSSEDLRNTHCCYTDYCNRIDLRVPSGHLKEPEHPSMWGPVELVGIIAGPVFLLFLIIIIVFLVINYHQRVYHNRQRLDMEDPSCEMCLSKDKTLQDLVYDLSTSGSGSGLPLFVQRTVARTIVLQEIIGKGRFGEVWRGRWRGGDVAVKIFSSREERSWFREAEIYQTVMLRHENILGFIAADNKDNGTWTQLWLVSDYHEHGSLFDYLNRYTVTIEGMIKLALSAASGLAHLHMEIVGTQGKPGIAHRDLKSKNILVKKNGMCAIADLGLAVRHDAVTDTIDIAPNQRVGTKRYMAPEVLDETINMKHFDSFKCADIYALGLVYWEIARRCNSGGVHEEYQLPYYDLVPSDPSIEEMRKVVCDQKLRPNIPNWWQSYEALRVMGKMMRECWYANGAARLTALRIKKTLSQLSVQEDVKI
Description: TR-FRET enzymatic ALK kinase assay, ALK4.
Description: as §1

Assay [6] addresses T4, ALK5 (Homo sapiens, UniProt P36897).
T4 sequence (P36897 34-503): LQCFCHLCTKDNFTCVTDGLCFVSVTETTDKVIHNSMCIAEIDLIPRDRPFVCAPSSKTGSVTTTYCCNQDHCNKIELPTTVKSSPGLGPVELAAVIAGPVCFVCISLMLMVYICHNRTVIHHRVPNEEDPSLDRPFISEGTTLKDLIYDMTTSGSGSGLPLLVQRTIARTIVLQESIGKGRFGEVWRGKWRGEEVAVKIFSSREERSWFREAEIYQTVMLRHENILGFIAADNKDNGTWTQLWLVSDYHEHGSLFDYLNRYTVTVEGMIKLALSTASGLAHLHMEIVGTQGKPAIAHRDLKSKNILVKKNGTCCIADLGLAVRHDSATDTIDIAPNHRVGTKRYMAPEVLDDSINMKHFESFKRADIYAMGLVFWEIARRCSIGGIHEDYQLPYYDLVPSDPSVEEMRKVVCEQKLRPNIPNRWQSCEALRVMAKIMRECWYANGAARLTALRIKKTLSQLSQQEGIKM
Description: TR-FRET enzymatic ALK kinase assay, ALK5.
Description: Six ALK kinase enzyme assays were developed for determination of compound activities on ALK1, ALK2, ALK3, ALK4, ALK5 and ALK6.
as §1

Assay [7] has as its target ALK6 (Homo sapiens, UniProt O00238). The assay can be described thus: TR-FRET enzymatic ALK kinase assay, ALK6.
Description: as §1

SMILES strings stand for the structures. Numbering of substitutions follows the chain as printed.

Chain of ALK6 (O00238 14-502): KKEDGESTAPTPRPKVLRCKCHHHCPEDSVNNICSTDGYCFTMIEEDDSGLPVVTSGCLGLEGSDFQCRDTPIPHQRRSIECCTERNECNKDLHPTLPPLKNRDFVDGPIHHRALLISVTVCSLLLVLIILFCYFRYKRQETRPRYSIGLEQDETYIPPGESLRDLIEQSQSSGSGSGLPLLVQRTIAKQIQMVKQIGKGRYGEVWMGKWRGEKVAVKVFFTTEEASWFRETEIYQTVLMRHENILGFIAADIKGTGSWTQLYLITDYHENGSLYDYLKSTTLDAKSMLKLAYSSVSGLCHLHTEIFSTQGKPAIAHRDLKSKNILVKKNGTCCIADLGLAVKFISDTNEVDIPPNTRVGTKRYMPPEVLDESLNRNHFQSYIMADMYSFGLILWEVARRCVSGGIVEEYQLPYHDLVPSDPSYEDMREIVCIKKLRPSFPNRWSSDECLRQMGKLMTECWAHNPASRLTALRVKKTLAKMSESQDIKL

`CN(C)CCc1ccc(-c2cnc3c(-c4ccc(S(N)(=O)=O)c5ccccc45)cnn3c2)cc1` [Compound 68, 4-(6-(4-(2-(dimethylamino)ethyl)phenyl)pyrazolo[1,5-a]pyrimidin-3-yl)naphthalene-1-sulfonamide]: the IC50 was 0.95 µM in assay [1]; 0.68 µM in assay [2]; 0.2 µM in assay [3]; more than 10 µM in assay [4]; more than 10 µM in assay [5]; more than 10 µM in assay [6]. The same compound gave an IC50 in assay [7] of more than 10 µM.
For `C[C@@H]1CNC[C@H](C)N1c1ccc(-c2cnc3c(-c4cccc(C#N)c4)cnn3c2)cc1` [Compound 69, 3-(6-(4-((2R,6S)-2,6-dimethylpiperazin-1-yl)phenyl)pyrazolo[1,5-a]pyrimidin-3-yl)benzonitrile], the IC50 is 2.25 µM in assay [1]; 0.93 µM in assay [2]; 0.14 µM in assay [3]; more than 10 µM in assay [4]; more than 10 µM in assay [5]; more than 10 µM in assay [6]. The IC50 in assay [7] was more than 10 µM.
As to `C[C@@H]1CNC[C@H](C)N1c1ccc(-c2cnc3c(-c4cccc(CCO)c4)cnn3c2)cc1` [Compound 70, 2-(3-(6-(4-((2R,6S)-2,6-dimethylpiperazin-1-yl)phenyl)pyrazolo[1,5-a]pyrimidin-3-yl)phenyl)ethanol], the IC50 was 1.2 µM in assay [1]; 0.28 µM in assay [2]; 0.066 µM in assay [3]; 2.8 µM in assay [4]; more than 10 µM in assay [5]; more than 10 µM in assay [6]. In assay [7], this compound came in with an IC50 of more than 10 µM.
`C[C@@H]1CNC[C@H](C)N1c1ccc(-c2cnc3c(-c4ccc(CS(N)(=O)=O)cc4)cnn3c2)cc1` [Compound 71, (4-(6-(4-((2R,6S)-2,6-dimethylpiperazin-1-yl)phenyl)pyrazolo[1,5-a]pyrimidin-3-yl)phenyl)methanesulfonamide]: the IC50 in assay [1] is 22 µM; in assay [2], more than 10 µM; in assay [3] it was 5.1 µM; in assay [4], more than 10 µM; in assay [5], more than 10 µM; in assay [6], more than 10 µM. In assay [7], this compound had an IC50 of more than 10 µM.
`C[C@@H]1CNC[C@H](C)N1c1ccc(-c2cnc3c(-c4cccc(CS(N)(=O)=O)c4)cnn3c2)cc1` [Compound 73, (3-(6-(4-((2R,6S)-2,6-dimethylpiperazin-1-yl)phenyl)pyrazolo[1,5-a]pyrimidin-3-yl)phenyl)methanesulfonamide]: the IC50 in assay [1] was 0.75 µM; in assay [2], 0.16 µM; in assay [3] it was 0.037 µM; in assay [4] it was 1.4 µM; in assay [5] it was 6.4 µM; in assay [6], more than 10 µM. In assay [7], this compound yielded an IC50 of more than 10 µM.
As for `C[C@@H]1CNC[C@H](C)N1c1ccc(-c2cnc3c(-c4cccc(CO)c4)cnn3c2)cc1` [Compound 74, (3-(6-(4-((2R,6S)-2,6-dimethylpiperazin-1-yl)phenyl)pyrazolo[1,5-a]pyrimidin-3-yl)phenyl)methanol], the IC50 in assay [1] is 0.08 µM; in assay [2] it was 0.15 µM; in assay [3] it was 0.04 µM; in assay [4] it was 1.7 µM; in assay [5] it was more than 10 µM; in assay [6], more than 10 µM. This compound returned an IC50 in assay [7] of more than 10 µM.
Regarding `CCS(=O)(=O)c1cccc(-c2cnn3cc(-c4ccc(CCN5CCCCC5)cc4)cnc23)c1` [Compound 106, 3-(3-(ethylsulfonyl)phenyl)-6-(4-(2-(piperidin-1-yl)ethyl)phenyl)pyrazolo[1,5-a]pyrimidine], the IC50 is 0.0022 µM in assay [1]; 0.22 µM in assay [2]; 0.066 µM in assay [3]; 2.2 µM in assay [4]; more than 10 µM in assay [5]; more than 10 µM in assay [6]. In assay [7], this compound displayed an IC50 of more than 10 µM.
For the compound `Cc1ccc([S+](=O)([O-])C(F)(F)F)cc1-c1cnn2cc(-c3ccc(N4[C@H](C)CNC[C@@H]4C)cc3)cnc12` [Compound 107, 6-(4-((2R,6S)-2,6-dimethylpiperazin-1-yl)phenyl)-3-(2-methyl-5-((trifluoromethyl)sulfonyl)phenyl)pyrazolo[1,5-a]pyrimidine], the IC50 in assay [1] is 2.13 µM; in assay [2], more than 10 µM; in assay [3], 6.6 µM; in assay [4], more than 10 µM; in assay [5], more than 10 µM; in assay [6], more than 10 µM. This compound displayed an IC50 in assay [7] of more than 10 µM.
For `O=[S+]([O-])(c1cccc(-c2cnn3cc(-c4ccc(C5CCNCC5)cc4)cnc23)c1)C1CC1` [Compound 110, 3-(3-(cyclopropylsulfonyl)phenyl)-6-(4-(piperidin-4-yl)phenyl)pyrazolo[1,5-a]pyrimidine], the IC50 is 0.71 µM in assay [1]; 0.48 µM in assay [2]; 0.05 µM in assay [3]; 3.9 µM in assay [4]; more than 10 µM in assay [5]; more than 10 µM in assay [6]. Besides, the IC50 in assay [7] was more than 10 µM.
Turning to `O=[S+]([O-])(c1cccc(-c2cnn3cc(-c4ccc(CCN5CCCCC5)cc4)cnc23)c1)C1CC1` [Compound 112, 3-(3-(cyclopropylsulfonyl)phenyl)-6-(4-(2-(piperidin-1-yl)ethyl)phenyl)pyrazolo[1,5-a]pyrimidine], the IC50 is 0.008 µM in assay [1]; 1.3 µM in assay [2]; 0.079 µM in assay [3]; 8.1 µM in assay [4]; more than 10 µM in assay [5]; more than 10 µM in assay [6]. This compound gave an IC50 in assay [7] of 9.8 µM.

By IC50 is commonly meant the concentration at which inhibition is half-maximal.

The values above are taken from US10513521B2, “Compositions and methods for inhibiting BMP” (The Brigham and Women's Hospital, Inc., priority 2014, dated 2019).
